Where a name gives a salt, the structure may show the parent alone. Starred links: 1 amine or outer side, 2 acyl side, 3 side chain; linkers in the order of their positions; H or OH if unused. Positions of bridges follow the written chain, without caps; N, C: chain ends. Non-standard residues stand in square brackets, D forms with d. Residues, ends and D or L forms follow the SMILES beside them. Chains are numbered I, II in the order given. No end group written: not given here. Actinocin(9to1) = Cc1c2oc3c(C)ccc(C(=O)[*:1])c3nc-2c(C(=O)[*:2])c(N)c1=O; NMeV = CN[C@H](C(=O)O)C(C)C; Sar = CNCC(=O)O
Tests used:
[1] = tested on: striatal, cortical, and hippocampal neurons; test: SP-induced cell death in primary striatal, cortical and hippocampal neurons, trypan blue viability and staining; format: cell-based, rat; details: for effect on neuronal cell death in response to SP: added 30 min before SP: 10 μM PD 98059, 50 nM Calphostin C, 10 μM Rp-8-Br-cAMPS; for effect on SP-induced neuronal cell death: 5 nM L-732,138, 1 nM L-733,060; for effect on SP-induced neuronal cell death / effect on SP-induced cell death: added at the same time as SP; for effect on SP-induced cell death: 1 μg/ml
Method: Rat neuronal primary cell cultures were also used to assay for inducers and inhibitors of paraptosis. Briefly, primary striatal, cortical and hippocampal cultures were prepared from 17-day-old Sprague-Dawley rat embryos (B&K). The tissue was dissected, minced and trypsinized for five minutes using 0.25% trypsin (Cell Grow). After the addition of 10% horse serum (Life Technologies) to inhibit the trypsin, the cell suspension was triturated 15–20 times with a 10 ml syringe and centrifuged for five minutes at 800×g. The pellet was resuspended in MEM-PAK (UCSF Cell Culture facility), supplemented with 2.02 gm glucose, 2 mM GLUTAMAX™ (Life Technologies) and penicillin/streptomycin (100 U/ml). The suspension was filtered through a […] cell strainer and the final culture medium contained 5% horse serum. Subsequently, 3-4×10^5 cells per Cm^2 were seeded onto either poly-D-lysine precoated 8-well chamber slides (Becton-Dickson Labware) or 96 well plates precoated with […] of poly-D-lysine (Sigma) in water. After 30 minutes of incubation time, unattached cells were removed together with the medium and replaced with glucose enriched MEM-PAK plus 5% horse serum. The cultures were then incubated at 37° C. in 95% air 5% carbon dioxide with 95% humidity. Cultures were used for experiments between day 1 and day 7 when glial contamination was at a minimum.
Primary neuronal cells were prepared as described in Example I. SP (SIGMA) at a concentration of 0.1 nM–100 μM was added 24–48 hrs after seeding, in the presence of 2.5% horse serum. When the cultures were maintained for more than 5 days, 10 μM cytosine arabinoside was added for 24 hours, beginning 3 days after plating the cells. Viability was quantified by trypan blue staining of the total cell population.
The following compounds were added at the same time as SP in the indicated experiments: 5 nM L-732, 138; 1 nM L-733,060; 1 μg/ml Actinomycin D or 1 μg/ml Cycloheximide. All of these compounds were obtained from SIGMA. The caspase inhibitors zVAD.fmk and BAF were added at 50 μM and obtained from Enzyme System Products, Livermore, Calif.
Either neuronal primary cultures or human embryonic kidney 293T cells were fixed with 4% paraformaldehyde and stained with 0.5 μg/ml DAPI (Molecular Probes) or Hoechst(SIGMA). […]
The protein kinase inhibitors were added 30 min before SP exposure at the following concentrations: 10 μM Rp-8-Br-cAMPS (adenosin 3′,5′-cyclic monophosphorothioate, 8-bromo-, Rp-isomer, sodium salt) which is a PKA inhibitor; 50 nM Calphostin C, which is a PKC inhibitor; 10 μM PD 98059 which is a MAPKK (MEK) inhibitor. These compounds were obtained from Calbiochem. Viability was quantified by trypan blue staining of the total cell population.

[2] = tested on: IGFIR-IC transfected 293T cells; test: Inhibition of IGFIR-IC induced paraptosis in transfected 293T cells, LDH assay; format: cell-based, human; details: added at the time of transfection
Method: Paraptosis was induced in 293T cells by expressing the intracellular domain of the insulin-like growth factor I receptor (IGFIR-IC) in these cells using transient transfection as described above.
(§1) Test compounds were added to IGFIR-IC transfected 293T cells at the time of transfection.
The TRAF2 dominant negative mutant contains a deletion of the amino terminal 271 amino acids of the protein. The ratio of IGFIR-IC:AIP1 and IGFIR-IC:TRAF2DN was 1:3. […] Antisense oligonucleotide constructs for JNK1 or JNK2 (50–100 nM) were transfected into 293T cells one day before transfection with the IGFIR-IC construct. For all inhibition assays, cell viability was measured using the LDH assay.

[3] = tested on: paraptosis induced by caspase 7, caspase 8 or caspase 9; test: Inhibition of paraptosis induced by caspases; format: cell-based
Method: as §1

293T cells = test: Induction of paraptosis in 293T cells, LDH cell death assay; format: cell-based, human; details: for induction of paraptosis when expressed: pcDNA3 construct transiently transfected into 293T cells
Method: Human embryonic kidney 293T cell line cells were used to assay for inducers and inhibitors of paraptosis. These cells were cultured in high glucose DMEM (Life Technologies) supplemented with 10% FBS (Sigma) and 1% penicillin/streptomycin (Life Technologies). The cultures were incubated at 37° C. in 95% air 5% carbon dioxide with 95% humidity.
Subsequently, compounds were added to 293T cells and/or rat neuronal primary cell culture cells in order to determine if the compounds could induce paraptosis. Cell death was assayed using the lactate dehydrogenase (LDH) assay, in which the relative amount of enzyme released from dying cells in the medium is measured by following the disappearance of nicotinamide adenine dinucleotide, reduced form (NADH) in the following reaction: pyruvate+NADH <−>NAD^++ lactate. Briefly, 50 μl of culture medium for either 293T cells or 100 μl of culture medium for neuronal primary culture were dispensed in a 96 well plate to which 100 μl of a solution consisting of 5 mg of NADH dissolved in 20 ml of PBS and 0.5 ml of 100 mM NaPyruvate. NADH disappearance was assessed by kinetic photmetric readings at a 340 nm wavelength at 19 minute intervals over a period of 2 hours and 30 minutes.
Constructs of pcDNA3 containing procaspase-7 or procaspase-8 were transiently transfected into 293T cells using Lipofect-Amine (GIBCO-BRL) according to the manufacturer's instructions. Briefly, 1×10^6 293T cells were seeded in 6 cm dishes, and transfected the next day using a ratio of DNA:Lipofect-Amine of 1 μg:5 μl. Transfection efficiency was 60–80% for 293T cells, as determined by X-gal staining after transfection of a β-galactosidase construct.

[4] = tested on: caspases, calpains, proteasome; test: Protease activation during SP-induced cell death, substrate hydrolysis in cytosolic extracts of NK1R-transfected 293T cells; format: biochemical, human; details: added to cytosolic extract of NK1R-transfected 293T cells
Method: Preparation of cell-free extract for kinetic studies: 293T cells seeded at the density of 2 million cells per 10 cm dish were transfected with NK1R cDNA using Lipofectamine 2000 (Gibco) according the instructions provided by the manufacturer. After 24 hr 10 nM SP was added to half of the culture dishes. At 24 hr later the cells were washed with ice cold PBS and collected with a cell scraper. The cells pelleted at 700×g for 4 min were resuspended in cell lysis buffer at pH 7.4 containing 1 mM dithiothreitol at a ratio of 1:1 (v/v). After 30 min on ice the swelled cells were disrupted with 20 strokes using a 27 gauge needle and further spun at 16,000×g for 30 min. The pellet was discarded and the supernatant which represents the cytosolic fraction was aliquoted and stored at −80° C. or used in the kinetic studies. The protein concentration was determined using the Bradford assay (Pierce).
For kinetic studies, the proteolytic activities were followed fluorometrically by monitoring AFC or AMC release from 100 μM of the corresponding substrates (Enzyme Systems Products): Caspase-1 like, Ac-YVAD-AFC; caspase-2, Ac-VDVAD-AFC; caspases-3 like, Ac-DEVD-AFC; caspase-6, Ac-VEID-AFC; caspase-8, Ac-IETD-AFC; caspase-9, Ac-LEHD-AFC. Calpain activity was monitored with 100 μM Suc-LY-AFC (succinyl-Leu-Tyr-7-amino-4-methylcoumarin, Enzyme Systems Products) at 5 μM and 5 mM CaCl2. The chymotrypsin activity of the proteasome was followed with 100 μM Suc-LLVY-AFC (succinyl-Leu-Leu-Val-Tyr-7-amino-4-methylcoumarin, Enzyme Systems Products), and cathepsins were assayed using 20 μM Z-FR-AMC (Benzyloxycarbonyl-Phe-Arg-7-amino-4-methylcoumarin, Bachem). A 10 μl aliquot of extract in the presence or absence of SP was added to 90 μl of substrate at the appropriate concentration and pH. The reaction was continuously monitored during 30 min and 37° C. in a fluorescence microplate reader (Molecular Devices). The instrument was set at excitation and emission wavelengths of 405 and 510 for AFC releasing group, and 370 and 460 nm, for AMC releasing group, respectively. The steady-state hydrolysis rates were obtained from the linear part of the curves.

In the case of `Nc1ncnc2c1nc(Br)n2C1OC2COP(O)(=S)OC2C1O` (single isomer, unassigned) [Rp-8-Br-cAMPS, adenosin 3′,5′-cyclic monophosphorothioate, 8-bromo-, Rp-isomer, sodium salt], the “effect on neuronal cell death in response to SP” value [1] is reported as “no protective effect”.

`c1cnc2c(c1)ccc1cccnc12` [1–10-phenantroline] was tested, and the “concentration able to inhibit IGFIR-IC induced paraptosis” value [2] was 0.05 µM, the “inhibition of paraptosis induced by caspase 8” value [3] was “able to inhibit paraptosis” and the “inhibition of paraptosis induced by caspase 9” value [3] was “able to inhibit paraptosis”.

With `O=S(=O)(NCCNC/C=C/c1ccc(Br)cc1)c1cccc2cnccc12` [H89] the “concentration able to inhibit IGFIR-IC induced paraptosis” value [2] was 10 to 20 µM.

For `CC(=O)N[C@@H](Cc1c[nH]c2ccccc12)C(=O)OCc1cc(C(F)(F)F)cc(C(F)(F)F)c1` [L-732,138], the “effect on SP-induced neuronal cell death” value [1] was “inhibited SP-induced cell death”.

For `FC(F)(F)c1cc(CO[C@H]2CCCN[C@H]2c2ccccc2)cc(C(F)(F)F)c1` [L-733,060], the “effect on SP-induced neuronal cell death” value [1] was “inhibited SP-induced cell death”.

For `Cc1c2oc3c(C)ccc(C(=O)N[C@@H]4C(=O)N[C@H](C(C)C)C(=O)N5CCC[C@H]5C(=O)N(C)CC(=O)N(C)[C@@H](C(C)C)C(=O)O[C@@H]4C)c3nc-2c(C(=O)N[C@@H]2C(=O)N[C@H](C(C)C)C(=O)N3CCC[C@H]3C(=O)N(C)CC(=O)N(C)[C@@H](C(C)C)C(=O)O[C@@H]2C)c(N)c1=O` [actinomycin D] (I: T[dV]P[Sar][NMeV] / II: T[dV]P[Sar][NMeV]; ester I:1-I:C, II:1-II:C; linker I:N-II:N via Actinocin(9to1)), the “effect on SP-induced cell death” value [1] was “prevented”.

`C[C@@H]1C[C@@H]([C@H](O)CC2CC(=O)NC(=O)C2)C(=O)[C@@H](C)C1` [cyclohexamide] was tested, and the “effect on SP-induced cell death” value [1] was “prevented”.

Calphostin C was tested, and the “effect on neuronal cell death in response to SP” value [1] was “no protective effect”.

With “D form of SP: D isomer of substance P ([dR][dP][dK][dP][dQ][dQ][dF][dF]G[dL][dM]; ends and bridges not checked)” the “effect of SP isomer on neuronal cell death” value ([1]; L or D isomer) was “no effect on cell death”.

For Tumor Necrosis Factor-α, the “concentration at which found to induce paraptosis” value (293T cells; 293T cells) was 1 to 10 ng/mL.

For “granzyme B: serine protease that activates procaspase-3”, the “increase of DEVDase activity” value [4] was 7 fold.

In the case of “neurokinin A: NK1R agonist that does not exhibit mitochondrial toxicity (HKTDSFVGLM; ends and bridges not checked; UniProt P20366 98-107, looked up)”, the “induction of cell death by NK1R agonists” value ([1]; compared with SP) is reported as “able to induce cell death as well as SP”.

B1: procaspase-7: procaspase-7 expressed in 293T cells from a pcDNA3 construct (protein, UniProt P55210 2-303, looked up)
pro-form: ADDQGCIEEQGVEDSANEDSVDAKPDRSSFVPSLFSKKKKNVTMRSIKTTRDRVPTYQYNMNFEKLGKCIIINNKNFDKVTGMGVRNGTDKDAEALFKCFRSLGFDVIVYNDCSCAKMQDLLKKASEEDHTNAACFACILLSHGEENVIYGKDGVTPIKDLTAHFRGDRCKTLLEKPKLFFIQACRGTELDDGIQADSGPINDTDANPRYKIPVEADFLFAYSTVPGYYSWRSPGRGSWFVQALCSILEEHGKDLEIMQILTRVNDRVARHFESQSDDPHFHEKKQIPCVVSMLTKELYFSQ
modifications: pro-form
notes: procaspase-7 expressed in 293T cells from a pcDNA3 construct
With B1 the “induction of paraptosis when expressed” value (293T cells) was “able to induce paraptosis”.

B2: procaspase-8: procaspase-8 expressed in 293T cells from a pcDNA3 construct (protein, UniProt Q14790 1-479, looked up)
pro-form: MDFSRNLYDIGEQLDSEDLASLKFLSLDYIPQRKQEPIKDALMLFQRLQEKRMLEESNLSFLKELLFRINRLDLLITYLNTRKEEMERELQTPGRAQISAYRVMLYQISEEVSRSELRSFKFLLQEEISKCKLDDDMNLLDIFIEMEKRVILGEGKLDILKRVCAQINKSLLKIINDYEEFSKERSSSLEGSPDEFSNGEELCGVMTISDSPREQDSESQTLDKVYQMKSKPRGYCLIINNHNFAKAREKVPKLHSIRDRNGTHLDAGALTTTFEELHFEIKPHDDCTVEQIYEILKIYQLMDHSNMDCFICCILSHGDKGIIYGTDGQEAPIYELTSQFTGLKCPSLAGKPKVFFIQACQGDNYQKGIPVETDSEEQPYLEMDLSSPQTRYIPDEADFLLGMATVNNCVSYRNPAEGTWYIQSLCQSLRERCPRGDDILTILTEVNYEVSNKDDKKNMGKQMPQPTFTLRKKLVFPSD
modifications: pro-form
notes: procaspase-8 expressed in 293T cells from a pcDNA3 construct
For B2, the “induction of paraptosis when expressed” value (293T cells) was “able to induce paraptosis”.

— patent US6994981B2, “Modulators of paraptosis and related methods” (The Buck Institute, priority 2002, dated 2006)
